Laboratory results: PMC7316778 (Nature Communications, 2020)

Experiments:
FES^S700C [1] = target: T1, FES^S700C (Homo sapiens, UniProt P07332, S700C); experiment: In vitro TR-FRET kinase assay; format: biochemical; design: human FES cDNA encoding residues 448–822 or human FER cDNA encoding residues 448–820 was amplified by PCR; made in house; host or cells: E. coli BL21(DE3), co-expressing YopH phosphatase; conditions: for Apparent fold selectivity: IC50 on FES^WT divided by IC50 on FES^S700C; for IC50: read-out: pIC50 FES^S700C (converted); for Residual activity (%): FES S700C, mean, n=3
T1 sequence (P07332 448-822 S700C): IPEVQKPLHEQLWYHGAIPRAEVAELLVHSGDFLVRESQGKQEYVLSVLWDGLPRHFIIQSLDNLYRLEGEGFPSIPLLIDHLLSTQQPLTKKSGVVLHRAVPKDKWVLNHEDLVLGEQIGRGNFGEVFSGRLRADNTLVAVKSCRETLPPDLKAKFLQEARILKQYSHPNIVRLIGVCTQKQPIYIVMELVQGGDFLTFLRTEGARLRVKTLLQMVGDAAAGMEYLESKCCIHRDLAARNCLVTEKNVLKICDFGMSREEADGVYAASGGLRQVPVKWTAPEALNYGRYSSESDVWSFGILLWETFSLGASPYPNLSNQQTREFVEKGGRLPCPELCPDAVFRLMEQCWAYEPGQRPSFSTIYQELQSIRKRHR

FES^S700C [2] = target: T1, FES^S700C; experiment: PamChip microarray peptide phosphorylation; format: biochemical; design: human FES cDNA encoding residues 448–822 or human FER cDNA encoding residues 448–820 was amplified by PCR; made in house; host or cells: E. coli BL21(DE3), co-expressing YopH phosphatase; conditions: peptide substrate phosphorylated by FES - S700C

Nc1ncnc2c1ncn2[C@@H]1O[C@H](COP(=O)(O)OP(=O)(O)OP(=O)(O)O)[C@@H](O)[C@H]1O [ATP]
Km (FES^S700C [1]; FES^S700C, TR-FRET, 60 min, read-out: ATP KM): 0.79 µM

COc1ccccc1Nc1ncc(Cl)c(Nc2ccccc2S(=O)(=O)C(C)C)n1 [Compound 2]
Apparent fold selectivity (FES^S700C [1]): 2.5 fold
IC50 (FES^S700C [1]; TR-FRET assay, 5 µM ATP, n = 3): 15.8 nM

C=CC(=O)Nc1ccccc1Nc1nc(Nc2ccccc2OC)ncc1Cl [Compound 4]
Apparent fold selectivity (FES^S700C [1]): 238 fold
IC50 (FES^S700C [1]; TR-FRET assay, 5 µM ATP, n = 3): 3.98 nM

CCC(=O)Nc1ccccc1Nc1nc(Nc2ccccc2OC)ncc1Cl [Compound 5]
pIC50 FES^S700C (FES^S700C [1]; TR-FRET assay, 5 µM ATP, n = 3): low inhibitory potency
IC50 (FES^S700C [1]; TR-FRET assay, 5 µM ATP, n = 3): 6310 nM

COc1ccccc1Nc1ncc(Cl)c(Nc2ccccc2S(=O)(=O)C(C)C)n1 [Supplementary Figure 1c]
Residual activity (%) (FES^S700C [1]; log[inhibitor] (M) = -5): 0.2233%
Residual activity (%) (FES^S700C [1]; log[inhibitor] (M) = -5.52288): 0.2556%
Residual activity (%) (FES^S700C [1]; log[inhibitor] (M) = -6): -0.06933%
Residual activity (%) (FES^S700C [1]; log[inhibitor] (M) = -6.52288): 4.851%
Residual activity (%) (FES^S700C [1]; log[inhibitor] (M) = -7): 14.3041%
Residual activity (%) (FES^S700C [1]; log[inhibitor] (M) = -7.52288): 33.9502%
Residual activity (%) (FES^S700C [1]; log[inhibitor] (M) = -8): 66.7428%
Residual activity (%) (FES^S700C [1]; log[inhibitor] (M) = -8.52288): 88.3714%
Residual activity (%) (FES^S700C [1]; log[inhibitor] (M) = -9): 94.1217%
Residual activity (%) (FES^S700C [1]; log[inhibitor] (M) = -9.52288): 96.7458%
Residual activity (%) (FES^S700C [1]; log[inhibitor] (M) = -10): 89.1056%
Residual activity (%) (FES^S700C [1]; log[inhibitor] (M) = -10.5229): 99.8276%
Residual activity (%) (FES^S700C [1]; log[inhibitor] (M) = -11): 106.567%

C=CC(=O)Nc1cccc(Nc2nc(Nc3ccccc3OC)ncc2Cl)c1 [Supplementary Figure 1d]
Residual activity (%) (FES^S700C [1]; log[inhibitor] (M) = -5): -0.2497%
Residual activity (%) (FES^S700C [1]; log[inhibitor] (M) = -5.52288): -0.5097%
Residual activity (%) (FES^S700C [1]; log[inhibitor] (M) = -6): -0.8205%
Residual activity (%) (FES^S700C [1]; log[inhibitor] (M) = -6.52288): -0.4059%
Residual activity (%) (FES^S700C [1]; log[inhibitor] (M) = -7): -0.7051%
Residual activity (%) (FES^S700C [1]; log[inhibitor] (M) = -7.52288): -0.1368%
Residual activity (%) (FES^S700C [1]; log[inhibitor] (M) = -8): 11.6016%
Residual activity (%) (FES^S700C [1]; log[inhibitor] (M) = -8.52288): 70.8547%
Residual activity (%) (FES^S700C [1]; log[inhibitor] (M) = -9): 85.0509%
Residual activity (%) (FES^S700C [1]; log[inhibitor] (M) = -9.52288): 98.0879%
Residual activity (%) (FES^S700C [1]; log[inhibitor] (M) = -10): 85.4934%
Residual activity (%) (FES^S700C [1]; log[inhibitor] (M) = -10.5229): 94.4068%
Residual activity (%) (FES^S700C [1]; log[inhibitor] (M) = -11): 106.971%

C=CC(=O)Nc1ccccc1Nc1nc(Nc2ccccc2OC)ncc1Cl [Supplementary Figure 1e]
Residual activity (%) (FES^S700C [1]; log[inhibitor] (M) = -5): 5.657%
Residual activity (%) (FES^S700C [1]; log[inhibitor] (M) = -5.52288): 10.8053%
Residual activity (%) (FES^S700C [1]; log[inhibitor] (M) = -6): 28.2387%
Residual activity (%) (FES^S700C [1]; log[inhibitor] (M) = -6.52288): 69.3014%
Residual activity (%) (FES^S700C [1]; log[inhibitor] (M) = -7): 75.3706%
Residual activity (%) (FES^S700C [1]; log[inhibitor] (M) = -7.52288): 96.1185%
Residual activity (%) (FES^S700C [1]; log[inhibitor] (M) = -8): 98.0581%
Residual activity (%) (FES^S700C [1]; log[inhibitor] (M) = -8.52288): 106.349%
Residual activity (%) (FES^S700C [1]; log[inhibitor] (M) = -9): 109.01%
Residual activity (%) (FES^S700C [1]; log[inhibitor] (M) = -9.52288): 116.606%
Residual activity (%) (FES^S700C [1]; log[inhibitor] (M) = -10): 111.768%
Residual activity (%) (FES^S700C [1]; log[inhibitor] (M) = -10.5229): 102.117%
Residual activity (%) (FES^S700C [1]; log[inhibitor] (M) = -11): 99.3612%

CCC(=O)Nc1ccccc1Nc1nc(Nc2ccccc2OC)ncc1Cl [Supplementary Figure 1f]
Residual activity (%) (FES^S700C [1]; log[inhibitor] (M) = -5): 51.0323%
Residual activity (%) (FES^S700C [1]; log[inhibitor] (M) = -5.52288): 52.0081%
Residual activity (%) (FES^S700C [1]; log[inhibitor] (M) = -6): 80.9285%
Residual activity (%) (FES^S700C [1]; log[inhibitor] (M) = -6.52288): 101.29%
Residual activity (%) (FES^S700C [1]; log[inhibitor] (M) = -7): 99.7119%
Residual activity (%) (FES^S700C [1]; log[inhibitor] (M) = -7.52288): 103.019%
Residual activity (%) (FES^S700C [1]; log[inhibitor] (M) = -8): 101.749%

AMPE_5_17 (EREGSKRYCIQTK; UniProt Q07075 5-17, looked up, fragment)
Relative phosphorylation (% of highest signal) (FES^S700C [2]): -0.5 % of highest signal

ART_004_EAIYAAPFAKKKXC
Relative phosphorylation (% of highest signal) (FES^S700C [2]): 8.3 % of highest signal

DDR1_506_518 (LLLSNPAYRLLLA; UniProt Q08345 506-518, looked up, fragment)
Relative phosphorylation (% of highest signal) (FES^S700C [2]): -0.9 % of highest signal

EFS_246_258_Y253F (GGTDEGIFDVPLL; UniProt O43281 246-258, looked up, fragment Y253F)
Relative phosphorylation (% of highest signal) (FES^S700C [2]): -1.4 % of highest signal

EPHA2_581_593 (QLKPLKTYVDPHT; UniProt P29317 581-593, looked up, fragment)
Relative phosphorylation (% of highest signal) (FES^S700C [2]): 0.144 % of highest signal

EPHA4_921_933 (QAIKMDRYKDNFT; UniProt P54764 921-933, looked up, fragment)
Relative phosphorylation (% of highest signal) (FES^S700C [2]): -0.7 % of highest signal

EPOR_361_373 (SEHAQDTYLVLDK; UniProt P19235 361-373, looked up, fragment)
Relative phosphorylation (% of highest signal) (FES^S700C [2]): 5.7 % of highest signal

MBP_259_271 (FGYGGRASDYKSA; UniProt P02686 259-271, looked up, fragment)
Relative phosphorylation (% of highest signal) (FES^S700C [2]): -0.258 % of highest signal

MBP_263_275 (GRASDYKSAHKGF; UniProt P02686 263-275, looked up, fragment)
Relative phosphorylation (% of highest signal) (FES^S700C [2]): -0.5 % of highest signal

MK01_198_210 (IMLNSKGYTKSID; UniProt P28482 198-210, looked up, fragment)
Relative phosphorylation (% of highest signal) (FES^S700C [2]): -1.1 % of highest signal

NPT2A_501_513 (AKALGKRTAKYRW; UniProt Q06495 501-513, looked up, fragment)
Relative phosphorylation (% of highest signal) (FES^S700C [2]): 0.557 % of highest signal

NTRK2_509_521 (PVIENPQYFGITN; UniProt Q16620 509-521, looked up, fragment)
Relative phosphorylation (% of highest signal) (FES^S700C [2]): -1.0 % of highest signal

ODBA_340_352_D340K (KDSSAYRSVDEVN; UniProt P12694 340-352, looked up, variant D340K)
Relative phosphorylation (% of highest signal) (FES^S700C [2]): -0.7 % of highest signal

PERI_458_470 (QRSELDKSSAHSY; UniProt P41219 458-470, looked up, fragment)
Relative phosphorylation (% of highest signal) (FES^S700C [2]): -1.0 % of highest signal

STA5A_687_699 (LAKAVDGYVKPQI; UniProt P42229 687-699, looked up, fragment)
Relative phosphorylation (% of highest signal) (FES^S700C [2]): -0.9 % of highest signal

STAT1_694_706 (DGPKGTGYIKTEL; UniProt P42224 694-706, looked up, fragment)
Relative phosphorylation (% of highest signal) (FES^S700C [2]): -0.9 % of highest signal

STAT4_686_698 (TERGDKGYVPSVF; UniProt Q14765 686-698, looked up, fragment)
Relative phosphorylation (% of highest signal) (FES^S700C [2]): -0.317 % of highest signal

STAT6_634_646 (MGKDGRGYVPATI; UniProt P42226 634-646, looked up, fragment)
Relative phosphorylation (% of highest signal) (FES^S700C [2]): -0.6 % of highest signal

VGFR1_1046_1058_Y1048F (DIFKNPDYVRKGD; UniProt P17948 1046-1058, looked up, variant Y1048F)
Relative phosphorylation (% of highest signal) (FES^S700C [2]): -0.9 % of highest signal

VGFR1_1049_1061 (KNPDYVRKGDTRL; UniProt P17948 1049-1061, looked up, fragment)
Relative phosphorylation (% of highest signal) (FES^S700C [2]): -0.7 % of highest signal

VGFR1_1162_1174 (VQQDGKDYIPINA; UniProt P17948 1162-1174, looked up, fragment)
Relative phosphorylation (% of highest signal) (FES^S700C [2]): 4.4 % of highest signal
